Results on 5 molecules are retold here after paper PMC9492542, “Brain-restricted mTOR inhibition with binary pharmacology” (Nature, 2022).

The target of this assay is T1, FKBP12 (Homo sapiens, UniProt P62942).
T1 construct: His-tag (HRV 3C cleavable) (cleaved yes); made in house; host or cells: Escherichia coli BL21(DE3)
Kind of assay: Competition fluorescence polarization assay with FITC-rapamycin tracer. It counts as binding. On the technique in general: Polarisation of emitted light reports the rotation of a fluorescent probe.

Setting [1] is: recombinant FKBP12, Extended Data Fig. 2, read-out: Kd (FKBP12).

The Kd is a measure of binding affinity in units of concentration.

Where two headings read alike, the source gives them in different places.

T1 sequence (P62942 whole entry): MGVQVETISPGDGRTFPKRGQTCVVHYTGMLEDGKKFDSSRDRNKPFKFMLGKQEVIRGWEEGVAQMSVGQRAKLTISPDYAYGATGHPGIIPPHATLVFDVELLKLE
Protocol: Compound binding affinity was determined using a competition fluorescence polarization assay. […] The assay buffer was 20 mM HEPES pH 7.5 and 0.01% Triton X-100. […] Data were fitted to a three-parameter sigmoidal curve to derive IC50 values. Ki of the compounds were calculated using a tool provided by S. Wang’s laboratory (http://www.umich.edu/~shaomengwanglab/software/calc_ki/index.html). Data were plotted in GraphPad Prism 9.0.

Regarding `CCC(C)(C)C(=O)C(=O)N1CCCC[C@H]1C(=O)O[C@H](CCc1ccc(OC)c(OC)c1)c1cccc(NC(=O)CN2CCOCC2)c1` [Compound 01-043], the Kd under setting [1] was 15 nM.

In the case of `CCC(C)(C)C(=O)C(=O)N1CCCC[C@H]1C(=O)O[C@H](CCc1ccc(OC)c(OC)c1)c1cccc(NC(=O)C[N+](C)(C)C)c1` [Compound 01-025], the Kd under setting [1] worked out at 95 nM. As to `CO[C@H]1C[C@@H](C)C/C(C)=C/[C@@H](CCCc2ccncc2)C(=O)C[C@H](O)[C@@H](C)[C@@H](/C(C)=C/[C@@H]2CC[C@@H](O)[C@H](OC)C2)OC(=O)[C@@H]2CCCCN2C(=O)C(=O)[C@]2(O)O[C@H]1[C@@H](OC)C[C@H]2C` [Compound 05-085], the Kd is 1.5 nM. Regarding `CO[C@H]1C[C@@H](C)C/C(C)=C/[C@@H](CCCSCCNC(=O)CNc2ccccn2)C(=O)C[C@H](O)[C@@H](C)[C@@H](/C(C)=C/[C@@H]2CC[C@@H](O)[C@H](OC)C2)OC(=O)[C@@H]2CCCCN2C(=O)C(=O)[C@]2(O)O[C@H]1[C@@H](OC)C[C@H]2C` [Compound 05-028], under setting [1], the Kd stood at 2.5 nM. On to `CCC(C)(C)C(=O)C(=O)N1CCCC[C@H]1C(=O)O[C@H](CCc1ccc(OC)c(OC)c1)c1cccc(NC(=O)CNN)c1` [Compound 01-070], for which the Kd under setting [1] was found to be 21 nM.
